Measurements as given in US9408856B2, “Topical steroidal formulations” (Temple University—Of The Commonwealth System of Higher …, priority 2008, dated 2016).
Several values for one entry are separate records, joined by “and”; a condition that tells them apart may be missing. Identical values can stand only once.

Columns and labels:
[1] = test system: TPA-stimulated epidermal DNA synthesis in mouse epidermis; assay: TPA-induced epidermal DNA synthesis in mouse epidermis, transdermal fluasterone; format: in vivo, CD-1 mice; details: for cpm/μg DNA: 20 h, single mice and group mean
Protocol: (§1) In dose-response experiments the anti-hyperplastic efficacy of fluasterone in TPA-treated mouse epidermis to determine bioavailability following different routes of administration was measured. Mice were treated with a single dose of fluasterone (either orally, subcutaneously, or transdermally) followed by a single application of TPA to the shaved back one hour latter. In case of transdermal administration, fluasterone is applied in a topical formulation to the shaved abdomen to allow for systemic absorption to the back of the animal. Twenty hours after TPA application, the mice are injected with 60 μCi of [3H] thymidine, sacrificed 20 minutes later, and a 2×2 cm2 of skin from the shaved back is excised and processed for the determination of the amount of [3H] thymidine incorporated per unit of epidermal DNA. (Hennings et. al., Cancer Res. 28:543-552, 1968).
Female CD-1 mice, 40-43 days old, were obtained from Charles River Laboratories, Kingston, N.Y. The mice were housed two per cage in plastic shoebox cages on Absorbdri bedding with 12 hours of alternating light and dark in the Central Animal Facility. The mice had ad libitum access to Purina 5015 chow and acidified tap water (pH S 2.6). The mice were allowed to acclimate to the facility for approximately two weeks prior to use in an experiment. […]
The mice were weighed, marked with magic marker on the tail, and shaved on the back and the abdomen one day prior to treatment. Only those mice showing no hair regrowth were used in the experiment. Fluasterone was applied to the shaved abdomen one hour before TPA was applied to the shaved back. The mice were anesthetized and on their backs prior to topical application of TPA. […]
The mice were anesthetized with Isoflurane, and then were given an intramuscular injection of 0.1 mL solution of ketamine (50 mg/kg), xylazine (10 mg/kg) and atropine (0.1 mg/kg). Approximately 10 minutes after the i.m. injection (after the mice could not turn over when placed on their backs), the mice were treated with 5 μL of a 12.5 mg/mL fluasterone/carbitol solution to give a dose of 2.5 mg/kg. The mice were anesthetized and on their backs for approximately 30 minutes after application of fluasterone/carbitol solution. One hour after the application of fluasterone/carbitol solution, 2 μg of TPA dissolved in. 0.2 mL of acetone was applied to the shaved area on the back of each mouse. […]
The mice were anesthetized with Isoflurane, and then were given an intramuscular injection of 0.1 mL solution of ketamine (50 mg/kg), xylazine (10 mg/kg) and atropine (0.1 mg/kg). Approximately 10 minutes after the i.m. injection (after the mice could not turn over when placed on their backs), the mice were treated with 2.5 μl, of a 12.5 mg/mL fluasterone/carbitol solution to give a dose of 1.25 mg/kg. The mice were anesthetized and on their backs for approximately 30 minutes after application of fluasterone/carbitol solution. One hour after the application of fluasterone/carbitol solution, 2 μg of TPA dissolved in 0.2 mL of acetone was applied to the shaved area on the back of each mouse.
The mice were anesthetized with Isoflurane, and then were given an intramuscular injection of 0.1 mL solution of ketamine (50 mg/kg), xylazine (10 mg/kg) and atropine (0.1 mg/kg). Approximately 10 minutes after the i.m. injection (after the mice could not turn over when placed on their backs), the mice were treated with 10 μL of a 12.5 mg/mL fluasterone/Cremophor EL solution to give a dose of 5 mg/kg. The mice were anesthetized and on their backs for approximately 30 minutes after application of fluasterone/Cremophor EL solution. One hour after the application of fluasterone/Cremophor EL solution, 2 μg of TPA dissolved in 0.2 mL of acetone was applied to the shaved area on the back of each mouse.
The mice were anesthetized with Isoflurane, and then were given an intramuscular injection of 0.1 mL solution of ketamine (50 mg/kg), xylazine (10 mg/kg) and atropine (0.1 mg/kg). […]

[2] = test system: TPA-stimulated epidermal DNA synthesis in mouse epidermis; assay: TPA-induced epidermal DNA synthesis in mouse epidermis, oral fluasterone; format: in vivo, CD-1 mice; details: Table 20; TPA 2 μg topical after sesame oil and suspension vehicle p.o. only; 20 h; group mean
[3] = Oral single dose PK experiment in mice; format: in vivo; details: 200 mg/kg oral single dose
Protocol: An oral single dose PK experiment in mice following administration of 200 mg/kg fluasterone was performed. The calculated AUC0-24 was 2,242 (ngXh/mL). A PK study was also performed in 12 human volunteers as part of a phase I fluasterone study. The volunteers received either 800 mg or 1600 mg fluasterone orally as a daily dose. The AUC0-24/mg dose was calculated.

[4] = test system: TPA-stimulated epidermal hyperplasia in mouse skin; assay: TPA-stimulated epidermal hyperplasia in mouse skin, subcutaneous fluasterone; format: in vivo, mice; details: subcutaneous injection
Protocol: as §1

[5] = test system: fasting plasma triglyceride levels; assay: Phase I/II trial in hypertriglyceridemic patients; format: in vivo, human; details: about 1200 mg oral
Protocol: The lowest effective oral dose of fluasterone which lowers fasting plasma triglycerides in diabetic mice is about 200 mg/kg, which translates into an oral human dose of about 1200 mg.

## CCCCCCCCCCCCCC(=O)O[C@@H]1[C@@H](C)[C@@]2(O)[C@@H](C=C(CO)C[C@]3(O)C(=O)C(C)=C[C@@H]23)[C@@H]2C(C)(C)[C@]12OC(C)=O [TPA, 12-O-tetradecanoylphorbol-13-acetate, reference compound]
[1]; TPA 2 μg (back) after carbitol vehicle only
  cpm/μg DNA: 331.5 cpm/μg DNA and 353.6 cpm/μg DNA and 342.6 ± 15.6 cpm/μg DNA
[2]
  cpm/μg DNA: 374.1 ± 16.8 cpm/μg DNA
  dpm/μg DNA: 603.4 ± 36.8 dpm/μg DNA

## C[C@]12CCCCC1=CC[C@@H]1[C@@H]2CC[C@]2(C)C(=O)[C@H](F)C[C@@H]12 [Fluasterone, 16α-fluoro-5-androsten-17-one]
[1]; Cremophor EL solution, 1.25 mg/kg transdermal (abdomen) 1 h before 2 μg TPA (back), 1.25 mg/kg
  cpm/μg DNA: 507.3 cpm/μg DNA and 414.3 cpm/μg DNA and 460.1 ± 65.8 cpm/μg DNA
[1]; Cremophor EL solution, 5 mg/kg transdermal (abdomen) 1 h before 2 μg TPA (back), 5 mg/kg
  cpm/μg DNA: 116.7 cpm/μg DNA and 147.4 cpm/μg DNA and 132.1 ± 21.7 cpm/μg DNA
[1]; Tween 80:ethanol (50:50 v/v) solution, transdermal
  lowest effective dose: ≤ 2.5 mg/kg
[1]; carbitol solution, 1.9 mg/kg transdermal (abdomen) 1 h before 2 μg TPA (back), 1.9 mg/kg
  cpm/μg DNA: 365.9 cpm/μg DNA and 227.7 cpm/μg DNA and 296.8 ± 97.7 cpm/μg DNA
[1]; carbitol solution, 5 mg/kg transdermal (abdomen) 1 h before 2 μg TPA (back), 5 mg/kg
  cpm/μg DNA: 533.8 cpm/μg DNA and 467.1 cpm/μg DNA and 500.5 ± 47.2 cpm/μg DNA
[1]; ethanol:limonene:isopropyl myristate (81:15:4) solution, 1.5 mg/kg transdermal (abdomen) 1 h before 2 μg TPA (back), 1.5 mg/kg
  cpm/μg DNA: 226.9 cpm/μg DNA and 147.5 cpm/μg DNA
[1]; mice
  transdermal potency compared with s.c. administration in abolishing TPA-stimulated hyperplasia: as potent as subcutaneous injection
[1]; topical solutions and suspension applied to abdomen
  transdermal dose that suppresses TPA-stimulated epidermal [3H]thymidine incorporation and/or epidermal DNA content: 2.5 mg/kg
[3]
  AUC0-24: 2,242 ngXh/mL
[4]
  lowest effective dose which abolishes TPA-stimulated epidermal hyperplasia: 2.5 to 5 mg/kg
[5]
  effect on fasting plasma triglyceride levels: significantly lowered
